Experimental data as given in patent US6864068B2, “Antifungal proteins” (Syngenta Limited, priority 1995, dated 2005).

Columns and labels:
Format in all cases: cell-based
[1] = test system: F culmorum; assay: Specific antifungal activity of Rs-AFP2 isoforms in SMF− and SMF+ media; design: IC50 SMF− / IC50 SMF+: unit not given here
Method: For each isoform, two independent purifications were carried out and the antifungal activity was determined in duplicate using F culmorum as a test fungus in two different media: a low ionic strength medium called SMF-(Terras et al, 1992, J Biol Chem, 267:15301-15309) and the same medium supplemented with 1 mM CaCl2 and 50 mM KCl called SMF+. The presence of salts in the test medium, especially salts with divalent cations, reduces the specific activity of Rs-AFP2. Seed-purified as well as yeast-expressed wild type Rs-AFP2 served as a control in the assays.
The relative specific activity is expressed as the specific activity of the mutant divided by the specific activity of yRs-AFP2 and multiplied by 100. […] The specific activity was measured in medium SMF−and SMF+.
Deviations are given as standard error of the mean (sem) based on the triplicate experiments. In SMF−, the medium without added salts, most of the derivatives show no decrease or only a minor decrease in antifungal activity, while in SMF+, the medium with added salts, there is a significant decrease in antifungal activity for several Rs-AFP2 isoforms.

[2] = test system: F culmorum; assay: Growth inhibition in SMF with varying CaCl2 or KCl (FIG. 7)
Method: Their antifungal activity was determined in SMF with increasing Ca^2+ or K^+ concentration and compared with that of plant-derivable wild type Rs-AFP2 (isolated from seed) as well as yeast purified Rs-AFP2. FIG. 7 is a graph of the percentage growth inhibition of F culmorum caused by 10 μg/ml of yeast-purified Rs-AFP2 (SEQ ID NO: 20) (open circles), seed-purified Rs-AFP2 (SEQ ID NO: 77) (closed circles), Rs-AFP2/G9R (SEQ ID NO: 38) (squares) and Rs-AFP2/V39R (SEQ ID NO: 43) (triangles) in a medium consisting of SMF with varying concentrations of CaCl2 (panel A) and KCl (panel B).

[3] = test system: Alternaria brassicicola; assay: Antifungal activity in three media differing in ionic strength (Table 3)
Method: (§1) The antifungal activity of the G9R and V39R Rs-AFP2 isoforms was also assessed on a set of seven different phytopathogenic fungi in three media differing in ionic strength: SMF−, SMF plus 1 mM CaCl2 and 50 mM KCl, and SMF plus 5 mM CaCl2 and 50 mM KCl. The fungi tested were: Alternaria brassicicola, Ascochyta pisi, Botrytis cinerea, Fusarium culmorum, Nectria haematococca, Phoma betae and Verticillium dahliae.

[4] = test system: Ascochyta pisi; assay: as above
Method: as §1

[5] = test system: Botrytis cinerea; assay: as above
Method: as §1

[6] = test system: Fusarium culmorum; assay: as above
Method: as §1

[7] = test system: Nectria haematococca; assay: as above
Method: as §1

[8] = test system: Phoma betae; assay: as above; details: 72 hours
Method: as §1

[9] = test system: Verticillium dahliae; assay: as above
Method: as §1

[10] = SMF plus 1 mM CaCl2 and 50 mM KCl

In the case of “yRs-AFP2/V39R: yeast-expressed Rs-AFP2 isoform, position 39 valine to arginine (QKLCQRPSGTWSGVCGNNNACKNQCIRLEKARHGSCNYRFPAHKCICYFPC; listed as Raphanus sativus)”, the “RELATIVE SPECIFIC ACTIVITY (%) IN MEDIUM SMF+” value ([1]; 1/IC50 of mutant divided by that of yRs-AFP2 x 100, 48 hour incubation, SMF with 1 mM CaCl2 and 50 mM KCl, preliminary tests) is reported as 114%, the “RELATIVE SPECIFIC ACTIVITY (%) IN MEDIUM SMF−” value ([1]; 1/IC50 of mutant divided by that of yRs-AFP2 x 100, 48 hour incubation, low ionic strength medium, preliminary tests) is reported as 74% and the “IC50 SMF+” value ([1]; 72 hours growth, high salt medium (1 mM CaCl2, 50 mM KCl), triplicate) is reported as 3.2. For the same substance, the “IC50 SMF−” value ([1]; 72 hours growth, low salt medium, triplicate) was 4.0, the “antifungal activity in SMF+ relative to wild-type Rs-AFP2” value ([1]; SMF+) was “approximately two-fold higher” and the “antifungal activity compared with yRs-AFP2, in words” value ([1]; Table 1 tests, SMF− and SMF+) was “maintain their antifungal activity”. The “effect of substitution on antifungal activity in SMF+, in words” value ([1]; Table 2 tests, high salt medium) was “increased antifungal activity”, the “effect of substitution on antifungal activity in SMF−, in words” value ([1]; Table 2 tests, low salt medium) was “little effect on the antifungal activity” and the “relative specific antifungal activity (1/IC50), FIG. 6, in words” value ([1]; medium SMF+, Rs-AFP2 set at 100) was “particularly active”. The “reduction of antifungal activity by cations, compared with wild-type Rs-AFP2” value ([2]; FIG. 7) was “less reduced by the presence of cations”, the “activity in the presence of 100 mM KCl” value ([2]; SMF with 100 mM KCl, FIG. 7, 10 μg/ml) was “fully inhibitory” and the “growth inhibition in the presence of 5mM CaCl2” value ([2]; protein 10 μg/ml, SMF with 5mM CaCl2) was “complete inhibition”. The “IC50 VALUES, A brassicicola, SMF + 1 mM CaCl2/50 mM KCl” value ([3]; 72 hours) was 50 µg/mL, the “IC50 VALUES, A brassicicola, SMF + 5 mM CaCl2/50 mM KCl” value ([3]; 72 hours) was over 100 µg/mL and the “IC50 VALUES, A brassicicola, SMF” value ([3]; SMF−, 72 hours) was 2.5 µg/mL. The “activity against A brassicola compared with Rs-AFP2, in words” value ([3]; Table 3 data) was “comparable to the activity of Rs-AFP2”, the “IC50 VALUES, A pisi, SMF + 1 mM CaCl2/50 mM KCl” value ([4]; 72 hours) was over 50 µg/mL and the “IC50 VALUES, A pisi, SMF + 5 mM CaCl2/50 mM KCl” value ([4]; 72 hours) was over 100 µg/mL. The “IC50 VALUES, A pisi, SMF” value ([4]; SMF−, 72 hours) was 2.0 µg/mL, the “activity against A pisi compared with Rs-AFP2, in words” value ([4]; Table 3 data) was “comparable to the activity of Rs-AFP2” and the “IC50 VALUES, B cinerea, SMF + 1 mM CaCl2/50 mM KCl” value ([5]; 72 hours) was over 50 µg/mL. The “IC50 VALUES, B cinerea, SMF + 5 mM CaCl2/50 mM KCl” value ([5]; 72 hours) was over 100 µg/mL, the “IC50 VALUES, B cinerea, SMF” value ([5]; SMF−, 72 hours) was 1.6 µg/mL and the “activity against B cinerea compared with Rs-AFP2, in words” value ([5]; Table 3 data) was “comparable to the activity of Rs-AFP2”. For the same substance, the “IC50 VALUES, F culmorum, SMF + 1 mM CaCl2/50 mM KCl” value ([6]; 96 hours) was 2.3 µg/mL, the “IC50 VALUES, F culmorum, SMF + 5 mM CaCl2/50 mM KCl” value ([6]; 96 hours) was 7.0 µg/mL and the “fold activity relative to Rs-AFP2 against F culmorum” value [6, 10] was “approximately two-fold more active”. For the same substance, the “IC50 VALUES, F culmorum, SMF” value ([6]; SMF−, 96 hours) was 2.2 µg/mL, the “IC50 VALUES, N haematococca, SMF + 1 mM CaCl2/50 mM KCl” value ([7]; 72 hours) was 9.0 µg/mL and the “IC50 VALUES, N haematococca, SMF + 5 mM CaCl2/50 mM KCl” value ([7]; 72 hours) was 62.0 µg/mL. The “fold activity relative to Rs-AFP2 against N haematococca” value [7, 10] was “five-fold more active”, the “IC50 VALUES, N haematococca, SMF” value ([7]; SMF−, 72 hours) was 2.1 µg/mL and the “IC50 VALUES, P betae, SMF + 1 mM CaCl2/50 mM KCl” value [8] was 40.0 µg/mL. For the same substance, the “IC50 VALUES, P betae, SMF + 5 mM CaCl2/50 mM KCl” value [8] was 70.0 µg/mL, the “IC50 VALUES, P betae, SMF” value ([8]; SMF−) was 1.4 µg/mL and the “IC50 VALUES, V dahliae, SMF + 1 mM CaCl2/50 mM KCl” value ([9]; 96 hours) was 2.3 µg/mL. The “IC50 VALUES, V dahliae, SMF + 5 mM CaCl2/50 mM KCl” value ([9]; 96 hours) was 6.0 µg/mL, the “fold activity relative to Rs-AFP2 against V dahliae” value [9, 10] was “five-fold more active” and the “IC50 VALUES, V dahliae, SMF” value ([9]; SMF−, 96 hours) was 0.4 µg/mL.
